From patent US9963448B2, “Bicyclic inhibitors of PAD4” (Padlock Therapeutics, Inc., priority 2015, dated 2018)
Like-named read-outs stand apart in the source and are kept apart here.

Tests used:
[1] = molecular target: hPAD4 (Homo sapiens, UniProt Q9UM07); test: hPAD4 RFMS (RapidFire mass spectrometry) PAD4 inhibition assay; assay type: biochemical; conditions: hPAD4 enzyme, RFMS readout;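 for hPAD4 RFMS pIC50: grade E means pIC50 at most 4 and F means pIC50 4.0 to 5.0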
Protocol: (§1) Compounds of the present invention were assayed as inhibitors of PAD4 using the assay protocol described below.
(§2) Compound stock solutions were stored at RT. […] Final assay conditions were as follows:
(§3) Total incubation time: 65 mins at 37° C.
(§4) Stop solution: 40 μl 5% TCA in ACN
(§5) The compound numbers correspond to the compound numbers in Table 1. […] The term pIC50=−log(IC50). […] “NA” stands for “not assayed.”

[2] = molecular target: mPAD4 (Mus musculus, UniProt Q9Z183); test: mPAD4 RFMS PAD4 inhibition assay; assay type: biochemical; conditions: mPAD4, RFMS readout;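 for mPAD4 RFMS pIC50: grade E means pIC50 at most 4 and F means pIC50 4.0 to 5.0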
Chain of mPAD4 (Q9Z183 whole entry): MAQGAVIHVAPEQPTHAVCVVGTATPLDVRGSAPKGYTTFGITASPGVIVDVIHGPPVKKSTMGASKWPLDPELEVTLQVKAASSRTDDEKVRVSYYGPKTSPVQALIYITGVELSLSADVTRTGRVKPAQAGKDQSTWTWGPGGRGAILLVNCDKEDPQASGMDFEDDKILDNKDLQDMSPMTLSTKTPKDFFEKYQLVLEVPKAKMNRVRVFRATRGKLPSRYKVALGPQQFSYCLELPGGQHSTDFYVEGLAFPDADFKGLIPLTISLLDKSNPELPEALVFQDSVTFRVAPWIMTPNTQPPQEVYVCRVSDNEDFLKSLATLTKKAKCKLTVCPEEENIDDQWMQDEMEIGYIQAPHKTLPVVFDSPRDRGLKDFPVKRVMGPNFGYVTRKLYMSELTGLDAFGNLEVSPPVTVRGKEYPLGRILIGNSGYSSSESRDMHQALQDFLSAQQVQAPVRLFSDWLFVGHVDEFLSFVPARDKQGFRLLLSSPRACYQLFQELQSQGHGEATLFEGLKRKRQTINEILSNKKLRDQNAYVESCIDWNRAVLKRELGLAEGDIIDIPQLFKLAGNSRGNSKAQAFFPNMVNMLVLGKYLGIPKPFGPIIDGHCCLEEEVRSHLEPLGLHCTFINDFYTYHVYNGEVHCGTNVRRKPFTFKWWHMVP
Protocol: as §1, §2, §3, §4, §5

[3] = pIC50=−log(IC50), read-out: hPAD4 RFMS pIC50 (converted)
[4] = pIC50=−log(IC50), read-out: mPAD4 RFMS pIC50 (converted)

Chain of hPAD4 (Q9UM07 whole entry): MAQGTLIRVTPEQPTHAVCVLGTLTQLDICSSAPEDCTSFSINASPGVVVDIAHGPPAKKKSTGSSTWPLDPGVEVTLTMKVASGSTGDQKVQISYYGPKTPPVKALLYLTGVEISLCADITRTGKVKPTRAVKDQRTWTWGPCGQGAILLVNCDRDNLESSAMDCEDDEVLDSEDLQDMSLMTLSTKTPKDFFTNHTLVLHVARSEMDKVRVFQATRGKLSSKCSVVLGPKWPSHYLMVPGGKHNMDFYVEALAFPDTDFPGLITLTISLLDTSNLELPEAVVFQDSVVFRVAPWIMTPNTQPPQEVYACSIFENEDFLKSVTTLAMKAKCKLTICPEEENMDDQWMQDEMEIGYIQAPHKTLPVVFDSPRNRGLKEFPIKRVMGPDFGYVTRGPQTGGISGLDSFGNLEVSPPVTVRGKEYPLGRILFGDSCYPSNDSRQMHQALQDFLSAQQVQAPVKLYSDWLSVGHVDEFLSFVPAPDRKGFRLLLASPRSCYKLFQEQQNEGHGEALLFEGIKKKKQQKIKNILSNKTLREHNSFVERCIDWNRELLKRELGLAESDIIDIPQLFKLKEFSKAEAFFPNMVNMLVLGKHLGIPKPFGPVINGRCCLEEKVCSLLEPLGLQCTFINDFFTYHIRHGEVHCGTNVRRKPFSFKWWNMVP

IC50 [1, 3] [µM]	IC50 ([1]; read-out: hPAD4 RFMS IC50) [µM]	IC50 [2, 4] [µM]	IC50 ([2]; read-out: mPAD4 RFMS IC50) [µM]	Compound
< 1	< 1	< 1	< 1	CCCn1c(-c2nc3cc(C(=O)N4C[C@H]5CC[C@@H]4[C@@H]5N)cc(OC)c3n2C)cc2cccnc21 [Compound I-154]
< 1	< 1	< 1	< 1	CCn1c(-c2nc3cc(C(=O)N4C[C@H]5CC[C@@H]4[C@@H]5N)cc(OC)c3n2C[C@H]2C[C@@](C)(O)C2)cc2cccnc21 [Compound I-155]
1 to 10	1 to 5	1 to 10	1 to 5	COc1cc(C(=O)N2C[C@H]3CC[C@@H]2[C@@H]3N)cc2nc(-c3cc4cccnc4n3CCF)n(C)c12 [Compound I-157]
< 1	< 1	< 1	< 1	CCn1c(-c2nc3cc(C(=O)N4C[C@H]5CC[C@@H]4[C@@H]5N)cc(OC)c3n2C)cc2cccnc21 [Compound I-159]
< 1	< 1	1 to 10	1 to 5	COc1cc(C(=O)N2C[C@H]3C[C@H](O)[C@@H]2[C@@H]3N)cc2nc(-c3cc4cccnc4n3CC3CC3)n(C)c12 [Compound I-162, (1S,4R,6S,7R)-7-Amino-2-{2-[1-(cyclopropylmethyl)-1H-pyrrolo[2,3-b]pyridin-2-yl]-7-methoxy-1-methyl-1H-1,3-benzodiazole-5-carbonyl}-2-azabicyclo[2.2.1]heptan-6-ol]
1 to 10	1 to 5	< 1	< 1	CCn1c(-c2nc3cc(C(=O)N4CCC[C@@H](N)C4)cc(OC)c3n2C[C@H]2C[C@@](C)(OC)C2)cc2cccnc21 [Compound I-163]
1 to 10	1 to 5	1 to 10	1 to 5	CCn1c(-c2nc3cc(C(=O)N4C[C@H]5CC[C@@H]4[C@@H]5N)cc(F)c3n2C)cc2cccnc21 [Compound I-165]
< 1	< 1	1 to 10	1 to 5	CCn1c(-c2nc3cc(C(=O)N4C[C@H]5CC[C@@H]4[C@@H]5N)cc(OC)c3n2CC2CCOCC2)cc2cccnc21 [Compound I-173]
1 to 10	1 to 5	1 to 10	1 to 5	CCn1c(-c2nc3cc(C(=O)N4CCC[C@@H](N)C4)cc(OC)c3n2CC2CCOCC2)cc2cccnc21 [Compound I-174]
< 1	< 1	1 to 10	1 to 5	CCn1c(-c2nc3cc(C(=O)N4C[C@H]5CC[C@@H]4[C@@H]5N)cc(OC)c3n2CCOC)cc2cccnc21 [Compound I-175]
1 to 10	1 to 5	< 1	< 1	COCCn1c(-c2cc3cccnc3n2CC2CC2)nc2cc(C(=O)N3CCC[C@@H](N)C3)cc(OC)c21 [Compound I-177]
< 1	< 1	< 1	< 1	COCCn1c(-c2cc3cccnc3n2CC2CC2)nc2cc(C(=O)N3C[C@H]4CC[C@@H]3[C@@H]4N)cc(OC)c21 [Compound I-178]
< 1	< 1	1 to 10	1 to 5	CCn1c(-c2nc3cc(C(=O)N4C[C@H]5CC[C@@H]4[C@@H]5N)cc(OC)c3n2CC2CC(F)(F)C2)cc2cccnc21 [Compound I-179]
1 to 10	1 to 5	< 1	< 1	CCn1c(-c2nc3cc(C(=O)N4CCC[C@@H](N)C4)cc(OC)c3n2CC2CC(F)(F)C2)cc2cccnc21 [Compound I-180]
< 1	< 1	< 1	< 1	COc1cc(C(=O)N2C[C@H]3CC[C@@H]2[C@@H]3N)cc2nc(-c3cc4cccnc4n3CC3CC3)n(C[C@H]3C[C@@](C)(OC)C3)c12 [Compound I-181]
< 1	< 1	< 1	< 1	COc1cc(C(=O)N2CCC[C@@H](N)C2)cc2nc(-c3cc4cccnc4n3CC3CC3)n(C[C@H]3C[C@@](C)(OC)C3)c12 [Compound I-182]
1 to 10	1 to 5	10 to 100	> 10	CCn1c(-c2nc3cc(C(=O)N4C[C@H]5CC[C@@H]4[C@@H]5N)ccc3n2CCOC)cc2cccnc21 [Compound I-186]
10 to 100	> 10	10 to 100	> 10	COc1cc(C(=O)N2C[C@H]3CC4OC(=O)N[C@H]3[C@@H]42)cc2nc(-c3cc4cccnc4n3CC3CC3)n(C)c12 [Compound I-187, (1S,2R,8R)-10-{2-[1-(Cyclopropylmethyl)-1H-pyrrolo[2,3-b]pyridin-2-yl]-7-methoxy-1-methyl-1H-1,3-benzodiazole-5-carbonyl}-5-oxa-3,10-diazatricyclo[4.4.0.0^2,8]decan-4-one]
< 1	< 1	< 1	< 1	COc1ccc2cc(-c3nc4cc(C(=O)N5C[C@H]6CC[C@@H]5[C@@H]6N)cc(OC)c4n3C)n(CC3CC3)c2n1 [Compound I-188]

Further lines, the molecule ahead of its results:

Compound	IC50 [1, 3] [µM]	IC50 ([1]; read-out: hPAD4 RFMS IC50) [µM]	IC50 [2, 4] [µM]	IC50 ([2]; read-out: mPAD4 RFMS IC50) [µM]
CCn1c(-c2nc3cc(C(=O)N4C[C@H]5CC[C@@H]4[C@@H]5N)cc(OC)c3n2C)cc2ccc(OC)nc21 [Compound I-139]	< 1	< 1	< 1	< 1
CCn1c(-c2nc3cc(C(=O)N4C[C@@H]5CC[C@H]4[C@H]5N)cc(OC)c3n2C)cc2ccc(OC)nc21 [Compound I-140]	1 to 10	5 to 10	10 to 100	> 10
COc1cc(C(=O)N2CC[C@H](OC)[C@H](N)C2)cc2nc(-c3cc4cccnc4n3CC3CC3)n(C)c12 [Compound I-142]	1 to 10	1 to 5	1 to 10	1 to 5
COc1cc(C(=O)N2CCC[C@@H](N)C2)cc2nc(-c3cc4cccnc4n3CCF)n(C)c12 [Compound I-146]	1 to 10	1 to 5	< 1	< 1
CCCn1c(-c2nc3cc(C(=O)N4CCC[C@@H](N)C4)cc(OC)c3n2C)cc2cccnc21 [Compound I-149]	< 1	< 1	< 1	< 1
CCn1c(-c2nc3cc(C(=O)N4CCC[C@@H](N)C4)cc(F)c3n2CC)cc2cccnc21 [Compound I-151]	1 to 10	1 to 5	1 to 10	5 to 10
CCn1c(-c2nc3cc(C(=O)N4C[C@H]5CC[C@@H]4[C@@H]5N)ccc3n2C)cc2cccnc21 [Compound I-152]	1 to 10	1 to 5	1 to 10	5 to 10
CCn1c(-c2nc3cc(C(=O)N4C[C@H]5CC[C@@H]4[C@@H]5N)cc(OC)c3n2C)cc2ccc(C)nc21 [Compound I-160]	< 1	< 1	< 1	< 1
CCn1c(-c2nc3cc(C(=O)N4CCC[C@@H](N)C4)cc(OC)c3n2C)cc2ccc(C)nc21 [Compound I-161]	< 1	< 1	< 1	< 1
CCn1c(-c2nc3cc(C(=O)N4CCC[C@@H](N)C4)cc(F)c3n2C)cc2cccnc21 [Compound I-164]	1 to 10	1 to 5	1 to 10	5 to 10
Cn1c(-c2cc3cccnc3n2CC2CC2)nc2cc(C(=O)N3CCC[C@@H](N)C3)cc(F)c21 [Compound I-166]	< 1	< 1	1 to 10	1 to 5
CCn1c(-c2nc3cc(C(=O)N4CCC[C@@H](N)C4)c(F)cc3n2C)cc2cccnc21 [Compound I-171]	1 to 10	5 to 10	1 to 10	5 to 10
Cn1c(-c2cc3cccnc3n2CC2CC2)nc2cc(C(=O)N3CCC[C@@H](N)C3)c(F)cc21 [Compound I-172]	1 to 10	1 to 5	1 to 10	1 to 5
CCn1c(-c2nc3cc(C(=O)N4CCC[C@@H](N)C4)cc(OC)c3n2CCOC)cc2cccnc21 [Compound I-176]	1 to 10	1 to 5	1 to 10	1 to 5
CCn1c(-c2nc3cc(C(=O)N4C[C@H]5CC[C@@H]4[C@@H]5N)cc(OC)c3n2C)cc2ccc(C(F)(F)F)nc21 [Compound I-183]	< 1	< 1	< 1	< 1
CCn1c(-c2nc3cc(C(=O)N4CCC[C@@H](N)C4)cc(OC)c3n2C)cc2ccc(C(F)(F)F)nc21 [Compound I-184]	< 1	< 1	< 1	< 1
CCn1c(-c2nc3cc(C(=O)N4CCC[C@@H](N)C4)ccc3n2CCOC)cc2cccnc21 [Compound I-185]	1 to 10	5 to 10	10 to 100	> 10
CCn1c(-c2nc3cc(C(=O)N4C[C@H]5CC[C@@H]4[C@@H]5N)cc(OC)c3n2C)cc2ccc(C(F)F)nc21 [Compound I-189, (1R,4R,7R)-2-{2-[6-(Difluoromethyl)-1-ethyl-1H-pyrrolo[2,3-b]pyridin-2-yl]-7-methoxy-1-methyl-1H-1,3-benzodiazole-5-carbonyl}-2-azabicyclo[2.2.1]heptan-7-amine]	< 1	< 1	< 1	< 1
COCCn1c(-c2nc3cc(C(=O)N4C[C@@H](N)CC[C@H]4C)cc(OC)c3n2C)cc2cccnc21 [Compound I-190]	1 to 10	1 to 5	1 to 10	1 to 5
